Laboratory results published in patent US20240158368A1, “Pyrrolidine Main Protease Inhibitors as Antiviral Agents” (AbbVie Inc., priority 2022, published 2024).

Legend:
in vitro [1] = conditions: human, microsomes, pH 7.4
in vitro [2] = conditions: rat, microsomes, pH 7.4
229E virus = experiment: organism not typed; format: cell-based; conditions: Huh-7, read-out: Antiviral 229E EC50 (μM)
in vitro [3] = conditions: PAMPA
MERS Mpro = MERS Mpro (Middle East respiratory syndrome-related coronavirus (isolate United Kingdom/H123990006/2012) (MERS-CoV) (Betacoronavirus England 1), UniProt K9N7C7); experiment: biochemical
OC43 Mpro = OC43 Mpro (Human coronavirus OC43 (HCoV-OC43), UniProt P0C6X6); format: biochemical
229E Mpro = 229E Mpro (Human coronavirus 229E (HCoV-229E), UniProt P0C6X1); format: biochemical
SARS-CoV-2 Mpro = SARS-CoV-2 Mpro (Severe acute respiratory syndrome coronavirus 2 (2019-nCoV) (SARS-CoV-2), UniProt P0DTD1); format: biochemical
[4] = system: SARS-CoV-2 (strain USA-WA1/2020); experiment: microbe, parasite or virus in culture; format: cell-based; conditions: Severe acute respiratory syndrome coronavirus 2; HeLa-ACE2 cells; read-out: Antiviral CoV-2 EC50
OC43 virus = experiment: microbe, parasite or virus in culture; format: cell-based; conditions: Betacoronavirus 1, OC43, Huh-7, read-out: Antiviral OC43 EC50 (μM)
SARS-CoV-1 Mpro = SARS-CoV-1 Mpro (Severe acute respiratory syndrome coronavirus (SARS-CoV), UniProt P0C6X7); format: biochemical

Chain of MERS Mpro (K9N7C7 3248-3553 limits assumed): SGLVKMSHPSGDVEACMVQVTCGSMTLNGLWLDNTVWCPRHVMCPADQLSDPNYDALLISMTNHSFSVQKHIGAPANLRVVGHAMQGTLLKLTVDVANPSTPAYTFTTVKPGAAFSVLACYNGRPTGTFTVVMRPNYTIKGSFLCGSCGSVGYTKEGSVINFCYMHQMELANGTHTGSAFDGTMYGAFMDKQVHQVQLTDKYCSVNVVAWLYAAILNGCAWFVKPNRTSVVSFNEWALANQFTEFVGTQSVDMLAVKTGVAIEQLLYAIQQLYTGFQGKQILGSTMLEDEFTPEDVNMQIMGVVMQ
Chain of OC43 Mpro (P0C6X6 3247-3549 limits assumed): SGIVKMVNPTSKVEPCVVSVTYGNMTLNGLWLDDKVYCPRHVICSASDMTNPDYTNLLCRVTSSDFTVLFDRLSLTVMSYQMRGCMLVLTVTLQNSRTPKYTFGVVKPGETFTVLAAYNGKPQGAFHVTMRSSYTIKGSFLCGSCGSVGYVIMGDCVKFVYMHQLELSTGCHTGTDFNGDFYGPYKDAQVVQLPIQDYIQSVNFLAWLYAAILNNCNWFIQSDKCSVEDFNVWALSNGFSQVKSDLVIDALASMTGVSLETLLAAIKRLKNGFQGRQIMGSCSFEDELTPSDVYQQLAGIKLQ
Chain of 229E Mpro (P0C6X1 2966-3267 limits assumed): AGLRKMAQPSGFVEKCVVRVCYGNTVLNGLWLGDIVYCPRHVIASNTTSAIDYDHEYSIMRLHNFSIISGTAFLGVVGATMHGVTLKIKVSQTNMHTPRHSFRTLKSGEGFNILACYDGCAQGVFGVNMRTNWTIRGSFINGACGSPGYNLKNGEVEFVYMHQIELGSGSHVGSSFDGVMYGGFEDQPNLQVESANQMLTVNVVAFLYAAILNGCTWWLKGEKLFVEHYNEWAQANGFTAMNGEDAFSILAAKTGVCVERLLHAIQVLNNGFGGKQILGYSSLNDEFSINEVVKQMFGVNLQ

Row | SMILES | CLint scaled (in vitro [1]) [mL/min/kg] | CLint scaled (in vitro [2]) [mL/min/kg] | EC50 (229E virus) [µM] | Papp (in vitro [3]) [×10⁻⁶ cm/s] | EC50 (MERS Mpro) [nM] | EC50 (OC43 Mpro) [nM] | EC50 (229E Mpro) [nM] | EC50 (SARS-CoV-2 Mpro) [nM] | EC50 [4] [nM] | EC50 (OC43 virus) [µM] | EC50 (SARS-CoV-1 Mpro) [nM]
1 | N#Cc1cc(C(=O)N2CCOCC2)c(N2CC[C@@H](NC(=O)c3c(F)c(=O)[nH]c4c(F)cccc34)C2)c(C(F)(F)F)c1 [Compound 5] | < 36.7 | < 60 | 0.039 | 7.23 | 1.26 | 1.25 | 1.44 | 0.48 | 10.2 | 0.047 | 1.5
2 | N#Cc1cc(C(=O)N2CCOCC2)c(N2CC[C@@H](NC(=O)c3cc(=O)[nH]c4c(F)c(F)ccc34)C2)c(C(F)(F)F)c1 [Compound 8] | < 35 | < 60 | 0.25 | 5.11 | 1.48 | 4.71 | 3.34 | 0.43 | 19 | 0.88 | 1.52
3 | COc1cccc2[nH]c(=O)cc(C(=O)N[C@@H]3CCN(c4c(C(=O)N5CCOCC5)cc(C#N)cc4C(F)(F)F)C3)c12 [Compound 9] | < 35 | < 58.3 | 0.11 | 0.34 | 1.8 | 2.85 | 2.01 | 0.47 | 319 | 0.28 | 0.79
4 | CN1CCN(C(=O)c2cc(C#N)cc(C(F)(F)F)c2N2CC[C@@H](NC(=O)c3cc(=O)[nH]c4c(F)cccc34)C2)CC1 [Compound 14] | < 30 | 56.7 | 0.15 | 2.73 | 1.33 | 2 | 2.1 | 0.46 | 12.9 | 0.19 | 2.73
5 | N#Cc1cc(C(=O)N2CCOCC2)c(N2C[C@H](NC(=O)c3cc(=O)[nH]c4c(F)c(F)ccc34)CC2=O)c(C(F)(F)F)c1 [Compound 34] | < 26.7 | < 45 | 3.37 | 1.04 | 2.28 | 91.8 | 41.7 | 1.12 | – | 7.32 | 2.98
6 | O=C(N[C@@H]1CCN(c2c(C(=O)N3CCOCC3)cc(Cl)cc2C(F)(F)F)C1)c1cc(=O)[nH]c2c(F)cccc12 [Compound 36] | 95 | 403 | 0.0578 | 14.3 | 1.02 | 0.84 | 2.39 | 0.49 | 9.1 | 0.0487 | 1.43
7 | O=C(N[C@@H]1CCN(c2c(C(=O)N3CCOCC3)cc(Br)cc2C(F)(F)F)C1)c1c(F)c(=O)[nH]c2c(F)cccc12 [Compound 48] | 81.7 | 210 | 0.044 | 17.9 | 0.9 | 0.44 | 1.43 | 0.43 | 5.8 | 0.031 | 1.15
8 | O=C(N[C@@H]1CCN(c2c(C(=O)N3CCOCC3)cc(Br)cc2C(F)(F)F)C1)c1cc(=O)[nH]c2c(F)cc(F)cc12 [Compound 49] | 190 | 573 | 0.0959 | 15.6 | 0.95 | 1.64 | 4.7 | 0.43 | 11.3 | 0.168 | 1.1
9 | O=C(N[C@@H]1CCN(c2c(C(=O)N3CCOCC3)cc(Br)cc2C(F)(F)F)C1)c1c(F)c(=O)[nH]c2c(F)c(F)ccc12 [Compound 50] | 190 | 165 | 0.319 | 16.2 | 1.9 | 1.2 | 4.51 | 0.5 | 11.4 | 0.303 | 2.23
10 | O=C(N[C@@H]1CCN(c2c(C(=O)N3CCOCC3)cc(Br)cc2C(F)(F)F)C1)c1cc(=O)[nH]c2c(F)c(F)ccc12 [Compound 51] | 125 | 447 | 0.0475 | 14.5 | 0.68 | 1.1 | 3.56 | 0.42 | 16 | 0.0584 | 1.23
11 | O=C(N[C@@H]1CCN(c2c(C(=O)N3CCOCC3)cc(Br)cc2C(F)(F)F)C1)c1cc(=O)[nH]c2ccccc12 [Compound 56] | 157 | 400 | 0.062 | 10.9 | 0.92 | 0.74 | 1.83 | 0.45 | 18.1 | 0.014 | 4.49
12 | O=C(N[C@@H]1CCN(c2c(C(=O)N3CCOCC3)cc(Br)cc2C(F)(F)F)C1)c1cc(=O)[nH]c2c(Cl)cccc12 [Compound 58] | 365 | 1000 | 0.983 | 17.9 | 0.91 | 5.84 | 24.5 | 0.42 | – | 0.864 | 1.07
13 | O=C(N[C@@H]1CCN(c2c(C(=O)N3CCOCC3)cc(Br)cc2C(F)(F)F)C1)c1cc(C(F)F)[nH]c(=O)c1 [Compound 61] | 51.7 | 83.3 | 63.1 | 15.7 | 3.25 | 52.3 | 367 | 1.93 | 413 | 11.4 | 4.61
14 | Cc1cc(C(=O)N2CCOCC2)c(N2C[C@H](NC(=O)c3cc(=O)[nH]c4c(F)cc(F)cc34)CC2=O)c(C2CC2)c1 [Compound 74] | < 33.3 | < 56.7 | 0.248 | 3.54 | 1.29 | 3.4 | 7.24 | 0.59 | 52 | 0.429 | 1.43
15 | COc1cccc2[nH]c(=O)cc(C(=O)N[C@@H]3CCN(c4c(C(=O)N5CCOCC5)cc(F)cc4C4CC4)C3)c12 [Compound 79] | 31.7 | 235 | 0.0284 | 2.98 | 1.51 | 0.76 | 2.42 | 0.42 | 38.5 | 0.02 | –
16 | COc1cccc2[nH]c(=O)cc(C(=O)N[C@@H]3CCN(c4c(C(=O)N5CCOCC5)cc(C)cc4C4CC4)C3)c12 [Compound 81] | 65 | 227 | 0.073 | 2.81 | 2.31 | 0.66 | 2.13 | 0.49 | 18.2 | 0.013 | 1.38
17 | COc1cccc2[nH]c(=O)cc(C(=O)N[C@@H]3CCN(c4c(C(=O)N5CCOCC5)cc(Cl)nc4C4CC4)C3)c12 [Compound 82] | 56.7 | 51.7 | 1.17 | 3.1 | 2.91 | 1.61 | 13.5 | 0.99 | 241 | 0.083 | –
18 | Cc1cc(C(=O)N2CCOCC2)c(N2C[C@H](NC(=O)c3cc(=O)[nH]c4c(F)c(F)ccc34)C[C@H]2C)c(C2CC2)c1 [Compound 83] | 1120 | 1430 | 0.029 | 15.7 | 1.39 | 0.42 | 1.76 | 0.42 | – | 0.023 | 1.53
19 | COc1cccc2[nH]c(=O)cc(C(=O)N[C@H]3CN(c4c(C(=O)N5CCOCC5)cc(C)cc4C4CC4)C[C@@H]3OC)c12 [Compound 84] | 120 | 195 | 0.141 | 3.6 | 2.44 | 0.64 | 2.35 | 0.6 | 35.1 | 0.019 | –
20 | COc1cccc2[nH]c(=O)cc(C(=O)N[C@@H]3CCN(c4c(Cl)cc(C)cc4C(=O)N4CCOCC4)C3)c12 [Compound 85] | 103 | 288 | 0.382 | 3.19 | 1.54 | 2.27 | 9.16 | 1.4 | 274 | 0.21 | 3.13
